Legend:
Experiment in all cases: Post-emergence herbicidal glasshouse test
Assay type in all cases: in vivo
Details in all cases: post-emergence spray, evaluated after 13 days, five-point scale
[1] = test system: Abutilon theophrasti (ABUTH)
Procedure: (§1) Seeds of a variety of test species are sown in standard soil in pots (Ipomoea hederacea (IPOHE), Abutilon theophrasti (ABUTH), Amaranthus retoflexus (AMARE), Echinochloa crus-galli (ECHCG), Setaria faberi (SETFA)). After 8 days cultivation under controlled conditions in a glasshouse (at 24/16° C., day/night; 14 hours light; 65% humidity), the plants are sprayed with an aqueous spray solution derived from the formulation of the technical active ingredient in acetone / water (50:50) solution containing 0.5% Tween 20 (polyoxyethelyene sorbitan monolaurate, CAS RN 9005-64-5). Compounds are applied at 1000 g/ha unless otherwise stated. The test plants are then grown in a glasshouse under controlled conditions in a glasshouse (at 24/16° C., day/night; 14 hours light; 65% humidity) and watered twice daily. After 13 days the test is evaluated for the percentage damage caused to the plant. The biological activities are shown in the following table on a five-point scale (5=81-100%; 4=61-80%; 3=41-60%; 2=21-40%; 1=0-20%).

[2] = test system: Amaranthus retoflexus (AMARE)
Procedure: as §1

[3] = test system: Echinochloa crus-galli (ECHCG)
Procedure: as §1

[4] = test system: Ipomoea hederacea (IPOHE)
Procedure: as §1

[5] = test system: Setaria faberi (SETFA)
Procedure: as §1

Row | Structure (SMILES) | percentage damage caused to the plant, ABUTH ([1]; 1000 g/ha) | percentage damage caused to the plant, AMARE ([2]; 1000 g/ha) | percentage damage caused to the plant, ECHCG ([3]; 1000 g/ha) | percentage damage caused to the plant, IPOHE ([4]; 1000 g/ha) | percentage damage caused to the plant, SETFA ([5]; 1000 g/ha) | percentage damage caused to the plant, ABUTH ([1]; applied at 500 gai/ha) | percentage damage caused to the plant, AMARE ([2]; applied at 500 gai/ha) | percentage damage caused to the plant, ECHCG ([3]; applied at 500 gai/ha) | percentage damage caused to the plant, IPOHE ([4]; applied at 500 gai/ha) | percentage damage caused to the plant, SETFA ([5]; applied at 500 gai/ha)
1 | N#Cc1cc(-c2cc(F)cc(F)c2)c(O)c(C(F)(F)F)c1 [Compound 1.183] | 4 (4=61-80%) | 5 (5=81-100%) | 2 (2=21-40%) | 2 (2=21-40%) | 2 (2=21-40%) |  |  |  |  | 
2 | N#Cc1cc(Cl)c(O)c(-n2cc(C(F)(F)F)cn2)c1 [Compound 1.001, 3-chloro-4-hydroxy-5-[4-(trifluoromethyl)pyrazol-1-yl]benzonitrile] | 5 (5=81-100%) | 4 (4=61-80%) |  | 1 (1=0-20%) | 4 (4=61-80%) |  |  |  |  | 
3 | N#Cc1cc(C#N)c(O)c(-c2cccc(F)c2)c1 [Compound 1.194] | 3 (3=41-60%) | 2 (2=21-40%) | 1 (1=0-20%) | 3 (3=41-60%) | 2 (2=21-40%) |  |  |  |  | 
4 | N#Cc1cc(Br)c(O)c(-c2cc(F)cc(Cl)c2)c1 [Compound 1.034] | 4 (4=61-80%) | 4 (4=61-80%) |  |  |  |  |  |  |  | 
5 | N#Cc1cc(-c2csc(C(F)(F)F)n2)c(O)c(C(F)(F)F)c1 [Compound 1.225] |  | 5 (5=81-100%) |  |  |  |  |  |  |  | 
6 | N#Cc1cc(-c2ccc(F)c(Cl)c2)c(O)c(C(F)(F)F)c1 [Compound 1.160] | 1 (1=0-20%) | 5 (5=81-100%) | 1 (1=0-20%) | 2 (2=21-40%) | 1 (1=0-20%) |  |  |  |  | 
7 | Cn1nc(-c2cc(C#N)cc(Br)c2O)cc1C(F)(F)F [Compound 1.007, 3-bromo-4-hydroxy-5-[1-methyl-5-(trifluoromethyl)pyrazol-3-yl]benzonitrile] | 2 (2=21-40%) | 5 (5=81-100%) |  | 3 (3=41-60%) | 1 (1=0-20%) |  |  |  |  | 
8 | N#Cc1cc(Br)c(O)c(-c2ccc(C(F)(F)F)c(C(F)(F)F)c2)c1 [Compound 1.008] | 2 (2=21-40%) | 5 (5=81-100%) |  | 2 (2=21-40%) | 4 (4=61-80%) |  |  |  |  | 
9 | N#Cc1cc(-c2cccc(F)c2)c(O)c(C(F)(F)F)c1 [Compound 1.005] | 5 (5=81-100%) | 4 (4=61-80%) | 4 (4=61-80%) | 5 (5=81-100%) | 1 (1=0-20%) |  |  |  |  | 
10 | Cc1cn(-c2cc(C#N)cc(C(F)(F)F)c2O)nc1C(F)(F)F [Compound 1.187] | 1 (1=0-20%) | 5 (5=81-100%) | 1 (1=0-20%) | 1 (1=0-20%) | 1 (1=0-20%) |  |  |  |  | 
11 | CC(=O)Oc1c(-c2cccc(F)c2)cc(C#N)cc1C(F)(F)F [Compound 2.002] | 5 (5=81-100%) | 5 (5=81-100%) | 4 (4=61-80%) | 5 (5=81-100%) | 1 (1=0-20%) |  |  |  |  | 
12 | N#Cc1cc(Br)c(O)c(-c2ccc(F)c(F)c2)c1 [Compound 1.130] | 5 (5=81-100%) | 5 (5=81-100%) | 1 (1=0-20%) | 2 (2=21-40%) | 1 (1=0-20%) |  |  |  |  | 
13 | N#Cc1cc(Br)c(O)c(-c2cccc(C(F)(F)F)c2)c1 [Compound 1.060] | 4 (4=61-80%) | 5 (5=81-100%) | 1 (1=0-20%) | 2 (2=21-40%) | 1 (1=0-20%) |  |  |  |  | 
14 | N#Cc1cc(Br)c(O)c(-c2ccc(F)cc2)c1 [Compound 1.048] | 5 (5=81-100%) | 5 (5=81-100%) | 2 (2=21-40%) | 2 (2=21-40%) | 2 (2=21-40%) |  |  |  |  | 
15 | N#Cc1cc(-c2ccnc(C(F)(F)F)c2)c(O)c(C(F)(F)F)c1 [Compound 1.158] | 1 (1=0-20%) | 4 (4=61-80%) | 1 (1=0-20%) | 2 (2=21-40%) | 1 (1=0-20%) |  |  |  |  | 
16 | N#Cc1cncc(-c2cc(C#N)cc(Br)c2O)c1 [Compound 1.067] | 3 (3=41-60%) | 1 (1=0-20%) | 2 (2=21-40%) | 2 (2=21-40%) | 2 (2=21-40%) |  |  |  |  | 
17 | N#Cc1cccc(-c2cc(C#N)cc(C(F)(F)F)c2O)c1 [Compound 1.145] |  |  |  |  |  | 1 (1=0-20%) | 1 (1=0-20%) | 1 (1=0-20%) | 3 (3=41-60%) | 1 (1=0-20%)
18 | N#Cc1cc(-c2ccc(OC(F)(F)F)cc2)c(O)c(C(F)(F)F)c1 [Compound 1.151] | 1 (1=0-20%) | 5 (5=81-100%) | 1 (1=0-20%) | 3 (3=41-60%) | 1 (1=0-20%) |  |  |  |  | 
19 | N#Cc1cc(Br)c(O)c(-c2cnc3c(c2)OC(F)(F)O3)c1 [Compound 1.036] | 2 (2=21-40%) | 5 (5=81-100%) | 3 (3=41-60%) | 3 (3=41-60%) | 4 (4=61-80%) |  |  |  |  | 
20 | N#Cc1cc(-n2cc(F)cn2)c(O)c(C(F)(F)F)c1 [Compound 1.186] | 5 (5=81-100%) | 2 (2=21-40%) | 1 (1=0-20%) | 4 (4=61-80%) | 1 (1=0-20%) |  |  |  |  | 
21 | N#Cc1cc(Br)c(O)c(-c2cccs2)c1 [Compound 1.134] | 4 (4=61-80%) | 4 (4=61-80%) | 1 (1=0-20%) | 4 (4=61-80%) | 1 (1=0-20%) |  |  |  |  | 
22 | N#Cc1cc(OC(F)(F)F)c(O)c(-c2cccc(F)c2)c1 [Compound 1.002] | 4 (4=61-80%) | 5 (5=81-100%) | 3 (3=41-60%) | 5 (5=81-100%) | 2 (2=21-40%) |  |  |  |  | 
23 | N#Cc1cc(Br)c(O)c(-c2cccc(F)c2)c1 [Compound 1.046, 3-bromo-5-(3-fluorophenyl)-4-hydroxy-benzonitrile] | 5 (5=81-100%) | 5 (5=81-100%) | 2 (2=21-40%) | 3 (3=41-60%) | 3 (3=41-60%) |  |  |  |  | 
24 | N#Cc1cc(-c2cc(F)c(F)c(F)c2)c(O)c(C(F)(F)F)c1 [Compound 1.182] | 4 (4=61-80%) | 5 (5=81-100%) | 1 (1=0-20%) | 5 (5=81-100%) | 1 (1=0-20%) |  |  |  |  | 
25 | N#Cc1cc(-c2cccc(F)c2)c(O)c([N+](=O)[O-])c1 [Compound 1.191] | 4 (4=61-80%) | 5 (5=81-100%) | 2 (2=21-40%) | 3 (3=41-60%) | 2 (2=21-40%) |  |  |  |  | 
26 | N#Cc1cc(Br)c(O)c(-c2cc(F)cc(C(F)(F)F)c2)c1 [Compound 1.027] | 4 (4=61-80%) | 5 (5=81-100%) |  | 3 (3=41-60%) | 4 (4=61-80%) |  |  |  |  | 
27 | COc1cc(-c2cc(C#N)cc(Br)c2O)cc(C(F)(F)F)n1 [Compound 1.009] | 2 (2=21-40%) | 4 (4=61-80%) |  | 2 (2=21-40%) | 2 (2=21-40%) |  |  |  |  | 
28 | N#Cc1cc(F)cc(-c2cc(C#N)cc(Br)c2O)c1 [Compound 1.032] | 4 (4=61-80%) | 5 (5=81-100%) |  | 3 (3=41-60%) | 4 (4=61-80%) |  |  |  |  | 

Reference: US20230024283A1, “HERBICIDAL COMPOUNDS” (SYNGENTA CROP PROTECTION AG, priority 2020, published 2023)
